# Results taken from paper PMC10235067, “Increased renal elimination of endogenous and synthetic pyrimidine nucleosides in concentrative nucleoside transporter 1 deficient mice” (Nature Communications, 2023).
# Values joined by “and” are separate entries in the source; they are usually repeats but may differ in a detail not shown here. Equal values may be shown once. Where a name gives a salt, the structure may show the parent alone.
# Experiments:
# [1] = cited from earlier work
# [2] = Gemcitabine urine pharmacokinetics (renal excretion) in Slc28a1+/+ and Slc28a1-/- mice
# Description: THU was added to the mouse urine samples upon collection and frozen until analysis. […] Five microliters of the diluted samples were transferred to a 96-well autosampler plate then 10 µL of internal standard mixture was added and mixed. […] The plate was then transferred to the 4 °C autosampler for analysis.
# The chromatographic separation was performed on a Thermo Accucore aQ 2.6 µm, 100 ×2.1 mm column at 30 °C using a gradient with a 10 µL injection volume. The mobiles phases were 1 mM ammonium acetate in deionized water pH 6.8 and acetonitrile. The total run time was 5.5 min. […] The LC–MS/MS analysis was conducted on a Thermo Vanquish UHPLC with a TSQ Quantiva mass spectrometer equipped with an electrospray ionization source.
# [3] = tested on: CNT1; conditions: read-out: Km (affinity for CNT1); cited from earlier work
# [4] = tested on: KPC cells; assay: Tumor burden by bioluminescent imaging after orthotopic implantation of KPC-LUC cells; conditions: orthotopic KPC-LUC tumors, Gemcitabine group, Fig. 6C source data
smiles,measurement,setting,value
"Nc1ccn([C@@H]2O[C@H](CO)[C@@H](O)C2(F)F)c(=O)n1 [dFdC, Gemcitabine hydrochloride, reference compound]",Log P,[1],−1.5
same,Cp (Gemcitabine),"[2]; Figure 5 G, H, I, KO mice, 5 Minutes, individual mice",667.756 µg/mL and 701.121 µg/mL and 742.057 µg/mL and 708.576 µg/mL and 1006.774 µg/mL
same,Cp (Gemcitabine),"[2]; Figure 5 G, H, I, KO mice, 10 Minutes, individual mice",1196.136 µg/mL and 1117.096 µg/mL and 1176.76 µg/mL and 1333.848 µg/mL and 1383.016 µg/mL and 1407.258 µg/mL
same,Cp (Gemcitabine),"[2]; Figure 5 G, H, I, KO mice, 15 Minutes, individual mice",1417.457 µg/mL and 1463.209 µg/mL and 1417.045 µg/mL and 1464.236 µg/mL and 1528.485 µg/mL and 1605.582 µg/mL
same,Cp (Gemcitabine),"[2]; Figure 5 G, H, I, KO mice, 30 Minutes, individual mice",1020.435 µg/mL and 1043.589 µg/mL and 1004.789 µg/mL and 686.314 µg/mL and 637.597 µg/mL
same,Cp (Gemcitabine),"[2]; Figure 5 G, H, I, KO mice, 60 Minutes, individual mice",806.557 µg/mL and 703.249 µg/mL and 814.631 µg/mL and 838.872 µg/mL and 677.262 µg/mL
same,Cp (Gemcitabine),"[2]; Figure 5 G, H, I, KO mice, 120 Minutes, individual mice",1007.916 µg/mL and 1001.638 µg/mL and 923.671 µg/mL and 928.827 µg/mL and 1022.245 µg/mL
same,Cp (Gemcitabine),"[2]; Figure 5 G, H, I, KO mice, 240 Minutes, individual mice",131.108 µg/mL and 117.705 µg/mL and 128.911 µg/mL and 104.939 µg/mL and 51.416 µg/mL and 148.894 µg/mL
same,Cp (Gemcitabine),"[2]; Figure 5 G, H, I, WT mice, 5 Minutes, individual mice",473.332 µg/mL and 486.741 µg/mL and 465.952 µg/mL and 485.933 µg/mL and 493.479 µg/mL
same,Cp (Gemcitabine),"[2]; Figure 5 G, H, I, WT mice, 10 Minutes, individual mice",654.272 µg/mL and 654.234 µg/mL and 642.732 µg/mL and 677.281 µg/mL and 755.524 µg/mL
same,Cp (Gemcitabine),"[2]; Figure 5 G, H, I, WT mice, 15 Minutes, individual mice",869.257 µg/mL and 882.561 µg/mL and 865.564 µg/mL and 871.549 µg/mL and 735.964 µg/mL
same,Cp (Gemcitabine),"[2]; Figure 5 G, H, I, WT mice, 30 Minutes, individual mice",865.074 µg/mL and 694.859 µg/mL and 1051.246 µg/mL and 934.229 µg/mL and 1018.271 µg/mL
same,Cp (Gemcitabine),"[2]; Figure 5 G, H, I, WT mice, 60 Minutes, individual mice",691.965 µg/mL and 701.388 µg/mL and 530.199 µg/mL and 662.975 µg/mL and 688.86 µg/mL
same,Cp (Gemcitabine),"[2]; Figure 5 G, H, I, WT mice, 120 Minutes, individual mice",410.29 µg/mL and 371.477 µg/mL and 406.197 µg/mL and 640.633 µg/mL and 369.675 µg/mL
same,Cp (Gemcitabine),"[2]; Figure 5 G, H, I, WT mice, 240 Minutes, individual mice",394.084 µg/mL and 419.478 µg/mL and 409.47 µg/mL and 387.436 µg/mL and 378.97 µg/mL
same,Dose in Urine (% of total dose administered),"[2]; Slc28a1+/+ mice, single i.v. dFdC 50 mg/kg",7.53%
same,Dose in Urine (% of total dose administered),"[2]; Slc28a1-/- mice, single i.v. dFdC 50 mg/kg",13.73%
same,concentration at 5 min,"[2]; mouse, urine, intravenous, 50 mg/kg, Cp (Gemcitabine), Figure 5 G, H, I, KO mice, 5 Minutes, individual mice",690 µg/mL
same,concentration at 30 min,"[2]; mouse, urine, intravenous, 50 mg/kg, Cp (Gemcitabine), Figure 5 G, H, I, KO mice, 30 Minutes, individual mice",995 µg/mL
same,concentration at 60 min,"[2]; mouse, urine, intravenous, 50 mg/kg, Cp (Gemcitabine), Figure 5 G, H, I, KO mice, 60 Minutes, individual mice",801 µg/mL
same,concentration at 120 min,"[2]; mouse, urine, intravenous, 50 mg/kg, Cp (Gemcitabine), Figure 5 G, H, I, KO mice, 120 Minutes, individual mice",977 µg/mL
same,concentration at 5 min,"[2]; mouse, urine, intravenous, 50 mg/kg, Cp (Gemcitabine), Figure 5 G, H, I, WT mice, 5 Minutes, individual mice",447 µg/mL
same,concentration at 10 min,"[2]; mouse, urine, intravenous, 50 mg/kg, Cp (Gemcitabine), Figure 5 G, H, I, WT mice, 10 Minutes, individual mice",628 µg/mL
same,concentration at 15 min,"[2]; mouse, urine, intravenous, 50 mg/kg, Cp (Gemcitabine), Figure 5 G, H, I, WT mice, 15 Minutes, individual mice",859 µg/mL
same,concentration at 30 min,"[2]; mouse, urine, intravenous, 50 mg/kg, Cp (Gemcitabine), Figure 5 G, H, I, WT mice, 30 Minutes, individual mice",725 µg/mL
same,concentration at 60 min,"[2]; mouse, urine, intravenous, 50 mg/kg, Cp (Gemcitabine), Figure 5 G, H, I, WT mice, 60 Minutes, individual mice",864 µg/mL
same,concentration at 120 min,"[2]; mouse, urine, intravenous, 50 mg/kg, Cp (Gemcitabine), Figure 5 G, H, I, WT mice, 120 Minutes, individual mice",403 µg/mL
same,concentration at 240 min,"[2]; mouse, urine, intravenous, 50 mg/kg, Cp (Gemcitabine), Figure 5 G, H, I, WT mice, 240 Minutes, individual mice",400 µg/mL
same,renal clearance (CLr) in Slc28a1-/- mice higher than in Slc28a1+/+ mice,"[2]; non-compartmentally calculated, single i.v. dFdC 50 mg/kg",126.63%
same,Km,[3],12 to 36 µM
same,"Tumor burden (bioluminescent imaging signal), individual mice","[4]; day 7, Slc28a1-/- mice",-32133333333 and 23906666667 and -21903333333 and -24593333333 and -34283333333 and 89006666667
same,"Tumor burden (bioluminescent imaging signal), individual mice","[4]; day 7, wild-type mice",59739000000 and -37121000000 and -92035000000 and 9139000000 and 52739000000 and 7539000000
same,"Tumor burden (bioluminescent imaging signal), individual mice","[4]; day 14, Slc28a1-/- mice",144007000000 and 59806666667 and 55206666667 and 122107000000 and 12746666667 and 52806666667
same,"Tumor burden (bioluminescent imaging signal), individual mice","[4]; day 14, wild-type mice",127000000000 and 202000000000 and 71900000000 and 123000000000 and 33800000000 and -44800000000
